Measurements taken from article PMC5748751, “Study of Structure and Permeability Relationship of Flavonoids in Caco-2 Cells” (Nutrients, 2017).
Read-outs that look alike come from different tables or passages of the source. Marks after values point to notes of the source that are not given here.

Columns and labels:
[1] = Recovery (mass balance) of flavonoids during Caco-2 transport assay; format: in vitro ADME; conditions: human, Caco-2, mass balance, both sides of insert plus cells
Method: The recovery of the flavonoid glycosides during the transport assays was determined by mass balance and was measured as total amount of the flavonoids on both sides of the insert and in the Caco-2 cells.

[2] = Cell viability (MTT) assay of flavonoids in Caco-2 cells; format: cell-based; conditions: human
Method: The cytotoxicity of flavonoids and colchicine was evaluated by MTT assay. The cells were grown in 96-well plates at a density of 1 × 10^4 cells/well. After incubation with 40 μM flavonoid for 24 h, the cells were further incubated with an MTT solution (0.5 mg/mL) for 4 h at 37 °C. Finally, after removal of the supernatant, 150 μL dimethyl sulphoxide was added to each well to dissolve crystallized MTT. Absorbance was read at 570 nm with a multiskan spectrum microplate reader (Thermo Labsystems, Waltham, MA, USA). The percentage cell viability relative to that of the control cells was used as the cytotoxicity measure.

Caco-2 cell monolayer = assay: Cellular accumulation (CA) of flavonoids in Caco-2 cell monolayer; conditions: for CA A to B: accumulated in cell monolayer after transport apical to basolateral; for CA A to B / CA B to A: 40 μM, 1 h, normalized to cellular protein, mean ± SD, n = 3; for CA B to A: accumulated in cell monolayer after transport basolateral to apical; for Ratioc (ratio of CA B to A to CA A to B): Caco-2 monolayer; for CA: both sides (CA A to B and CA B to A)
Method: After the collection of samples from both AP and BL sides, the hanging insert was rinsed twice with ice-cold D-Hank’s buffer to stop further transport, and lysed with 0.1% Triton X-100 in D-Hank’s buffer then placed in an ultrasonic bath for 15 min. Cell lysates were collected and centrifuged at 7000× g for 10 min. Supernatants were analyzed by BCA kit (Dingguochangsheng Biotechnology, Beijing, China) for protein content. After protein content assay, supernatants were immediately frozen, lyophilized and preserved at −80 °C. The flavonoid concentration in lysis solution was determined by HPLC and normalized with cellular protein content.
To determine both the permeability and CA of flavonoids in Caco-2 cells, the lyophilized samples were dissolved in running 120 to 200 μL methanol, and centrifuged at 7000× g for 5 min. Aliquot of 20 μL of the supernatant solution was used for assay using Waters e2695 HPLC system (Milford, MA, USA) fitted with an Amethyst C18-H column (250 mm × 4.6 mm i.d., 5 μm; Sepax, Newark, DE, USA). The mobile phase consisted of A (0.01 M phosphoric acid (H3PO4))/B (acetonitrile) with 1.0 mL/min flow rate. […] Peak area measurement was used to obtain standard calibration curves to determine concentration of each flavonoid.

[3] = Permeability (bidirectional transport) of flavonoids in Caco-2 cell monolayers; format: in vitro ADME; conditions: human; for Papp A→B at 60 min, 40 μM: Caco-2, apical to basolateral; for Papp A→B at 60 min, 40 μM / Papp B→A at 60 min, 40 μM: incubation 60 min, 37 °C, D-Hank's pH 7.4, mean ± SD, n = 3–6; for Papp B→A at 60 min, 40 μM: Caco-2, basolateral to apical; for Papp at 1 h, 40 μM: Caco-2, pH 7.4, as stated in text, direction not specified (bilateral), Caco-2 monolayer; for efflux ratio at 60 min, 40 μM: pH 7.4, Caco-2 monolayer, read-out: Ratiop (ratio of Papp B to A to Papp A to B)
Method: Caco-2 cells were cultured in MEM supplemented with 10% FBS, 1% NEAA, penicillin (100 U/mL) and streptomycin (100 μg/mL) in an atmosphere of 5% CO2 and 90% relative humidity at 37 °C. All cells used in this study were between passages 35 and 45 [16].
Caco-2 cells were seeded at a density of about 8 × 10^4 cells/cm^2 on a 12 wells Millicell hanging insert and left to grow for 19–21 days to reach confluence. Culture medium was replaced every other day for 14 days and daily thereafter. The integrity and transport ability of the Caco-2 cells monolayer were examined by measuring the trans-epithelial electrical resistance (TEER) with a Millicell voltammeter (Millicell ERS-2, Merck Millipore, Billerica, MA, USA) and running standard assays using Lucifer yellow CH as paracellular flux marker. […] Differentiation of Caco-2 cells was checked after 4 and 12 days by determining the activity of alkaline phosphatase with an assay kit (Nanjing Jiancheng Bioengineering Institute, Nanjing, China) and after 21 days transmission electron microscopy was performed on Caco-2 monolayer to evaluate differentiation.
The Caco-2 cell monolayer was washed with D-Hank’s buffer (pH 7.4). Then, the flavonoid (40 μM) was added to either the apical (AP, 0.4 mL) or basolateral (BL, 1.95 mL) side, while the receiving chamber contained the corresponding volume of D-Hank’s buffer and incubated for 1 h at 37 °C. Solutions from both AP and BL sides of Caco-2 cell monolayer were collected and immediately frozen, lyophilized and preserved at −80 °C for high performance liquid chromatography (HPLC) analysis. Papp was calculated from Equation (1), where ΔQ/Δt is the rate of the flavonoid on the accepting chamber (μM/s), A is the surface area of the hanging insert (cm^2) and C0 is the initial concentration of tested flavonoid in donating chamber (μM/mL).(1) Papp=ΔQ/Δt/AC0

[4] = Stability of flavonoids in D-Hank's buffer relative to methanol; format: physicochemical; conditions: 20 μM flavonoid, HPLC peak area in D-Hank's / peak area in methanol × 100%
Method: The relative stability was expressed as the relative appearance of flavonoids in different solvents. Each flavonoid (20 μM) was dissolved in two different solvents, D-Hank’s and methanol. […] Relative concentration in D-Hank’s (%) = Peak area in D-Hank’s/Peak area in methanol × 100%(3)

[5] = transport apical to basolateral, read-out: Recovery (A to B, %)
[6] = transport basolateral to apical, read-out: Recovery (B to A, %)

| Structure (SMILES) | recovery [1, 5] [%] | recovery [1, 6] [%] | viability at 24 h, 40 μM [2] [%] | CA A to B (Caco-2 cell monolayer) | CA B to A (Caco-2 cell monolayer) | Papp A→B at 60 min, 40 μM [3] [nm/s] | Papp B→A at 60 min, 40 μM [3] [nm/s] | Papp at 1 h, 40 μM [3] [nm/s] | Relative concentration of flavonoids, D-Hank's/methanol (%) [4] [%] | Ratioc (ratio of CA B to A to CA A to B) (Caco-2 cell monolayer) | efflux ratio at 60 min, 40 μM [3] | CA (Caco-2 cell monolayer) |
| --- | --- | --- | --- | --- | --- | --- | --- | --- | --- | --- | --- | --- |
| C[C@@H]1O[C@@H](O[C@H]2[C@H](Oc3cc(O)c4c(c3)O[C@H](c3ccc(O)cc3)CC4=O)O[C@H](CO)[C@@H](O)[C@@H]2O)[C@H](O)[C@H](O)[C@H]1O [Compound 20, Naringin] | 93.2 ± 7.62 | 82.9 ± 11 | 99.1 ± 4.92 | 0.058 ± 0.013 µmol/g | 0.068 ± 0.011 µmol/g | 37.3 ± 7.3 | 50.9 ± 15.5 | < 60 |  |  |  |  |
| O=c1cc(-c2ccc(O)cc2)oc2cc(O)cc(O)c12 [Compound 6, Apigenin] |  |  | 101 ± 4.56 | 4.415 ± 0.467 µmol/g | 7.610 ± 0.694 ^b μmol/g | 171 ± 17.2 | 169 ± 10.2 |  | 41.76 | 1.72 | 0.99 |  |
| O=C1c2c(O)cc(O)cc2OC(c2ccc(O)c(O)c2)C1O (stereo not drawn) [Compound 22, Taxifolin] |  |  | 99.5 ± 2 |  |  | 63.2 ± 11.6 | 261 ± 20.8 | > 200 |  |  |  | not detected |
| COc1ccc(-c2coc3cc(O)cc(O)c3c2=O)cc1 [Compound 28, Biochanin A] |  |  | 106 ± 6.44 | 6.766 ± 1.583 µmol/g | 14.087 ± 1.287 ^b μmol/g | 111 ± 5.1 | 107 ± 29.8 | > 100 |  |  |  | > 6 µmol/g |
| COc1ccc(-c2coc3cc(O)ccc3c2=O)cc1 [Compound 23, Formononetin] |  |  | 94.6 ± 3.6 | 3.819 ± 1.320 µmol/g | 4.842 ± 0.424 µmol/g | 174 ± 17.8 | 183 ± 18.3 | > 100 |  |  |  |  |
| COc1ccc(-c2cc(=O)c3c(OC)c(OC)c(OC)c(OC)c3o2)cc1 [Compound 2, Tangertin] |  |  | 97.5 ± 3.53 | 2.706 ± 0.174 µmol/g | 2.423 ± 0.543 µmol/g | 219 ± 5.85 | 239 ± 4.5 |  | 12.09 | 0.90 | 1.1 |  |
| O=c1cc(-c2ccccc2)oc2ccccc12 [Compound 1, Flavone] |  |  | 96.3 ± 9.79 | 1.932 ± 0.051 µmol/g | 3.183 ± 0.504 ^a μmol/g | 224 ± 13.7 | 217 ± 12.1 |  | 60.10 | 1.65 | 0.97 |  |
| COc1cc2c(=O)c(-c3ccc(O)cc3)coc2cc1O [Compound 25, Glycitein] |  |  | 98.3 ± 4.6 | 1.821 ± 0.774 ^a μmol/g | 0.158 ± 0.021 µmol/g | 124 ± 9.1 | 62.3 ± 4.6 | > 100 |  |  |  |  |
| COc1ccc(CCC(=O)c2c(O)cc(O[C@@H]3O[C@H](CO)[C@@H](O)[C@H](O)[C@H]3O[C@@H]3O[C@@H](C)[C@H](O)[C@@H](O)[C@H]3O)cc2O)cc1O [Compound 30, Neohesperidin dihydrochalcone] | 78.7 ± 1.3 | 79.5 ± 1.24 | 102 ± 6.35 | 0.096 ± 0.010 µmol/g | 0.251 ± 0.012 µmol/g | 42.5 ± 5.3 | 50.8 ± 10.8 | < 60 |  |  |  |  |
| O=C(/C=C/c1ccc(O)cc1)c1ccc(O)cc1O [Compound 29, Isoliquiritigenin] |  |  | 99.2 ± 7.94 | 4.393 ± 0.790 µmol/g | 8.804 ± 1.576 ^a μmol/g | 138 ± 7.3 | 200 ± 12.9 |  |  |  |  |  |
